Assay results reported in US6559101B2, “N- (5, 7-dimethoxy [1, 2, 4] triazolo [1, 5-a] pyrimidin-2-yl) arylsulfonamide compounds and their use as herbicides” (Dow AgroSciences LLC, priority 2000, dated 2003).

Tests used:
Assay type in all cases: in vivo
[1] = system: Rox orange sorghum (Sorghum bicolor); test: Postemergence herbicidal activity; conditions: scored after 2 weeks, 0 no injury, 100 complete kill
Experimental: (§1) Seeds of the desired test plant species were planted in Grace-Sierra MetroMix® 306 planting mixture, which typically has a pH of 6.0 to 6.8 and an organic matter content of about 30 percent, in plastic pots with a surface area of 64 square centimeters. When required to ensure good germination and healthy plants, a fungicide treatment and/or other chemical or physical treatment was applied. The plants were grown for 7-21 days in a greenhouse with an approximately 15 hr photoperiod which was maintained at about 23-29° C. during the day and 22-28° C. during the night. Nutrients and water were added on a regular basis and supplemental lighting was provided with overhead metal halide 1000 Watt lamps as necessary. The plants were employed for testing when they reached the first or second true leaf stage. A weighed amount of each test compound, determined by the highest rate to be tested, was placed in a 20 mL glass vial and was dissolved in 4 mL of a 97:3 v/v (volume/volume) mixture of acetone and dimethyl sulfoxide to obtain concentrated stock solutions. […] The concentrated stock solutions obtained were diluted with an aqueous mixture containing acetone, water, iso-propyl alcohol, dimethyl sulfoxide, Atplus 411F crop oil concentrate, and Triton X-155 surfactant (methylenebisdiamyl phenoxy polyethoxy ethanol) in a 48.5:39:10:1.5:1.0:0.02 v/v ratio to obtain spray solutions of known concentration. The solutions containing the highest concentration to be tested were prepared by diluting 2 mL aliquots of the stock solution with 13 mL of the mixture and lower concentrations were prepared by dilution of appropriate smaller portions of the stock solution. Approximately 1.5 mL aliquots of each solution of known concentration were sprayed evenly onto each of the test plant pots using a Devilbiss atomizer driven by compressed air pressure of 2 to 4 psi (140 to 280 kiloPascals) to obtain thorough coverage of each plant. Control plants were sprayed in the same manner with the aqueous mixture. In this test an application rate of 1 ppm results in the application of approximately 1 g/ha. The treated plants and control plants were placed in a greenhouse as described above and watered by sub-irrigation to prevent wash-off of the test compounds. After 2 weeks the condition of the test plants as compared with that of the untreated plants was determined visually and scored on a scale of 0 to 100 percent where 0 corresponds to no injury and 100 corresponds to complete kill.

[2] = system: blackgrass (Alopecurus myosuroides); test: Postemergence herbicidal activity; conditions: scored after 2 weeks, 0 no injury, 100 complete kill
Experimental: as §1

[3] = system: chickweed (Stellaria media); test: Postemergence herbicidal activity; conditions: scored after 2 weeks, 0 no injury, 100 complete kill
Experimental: as §1

[4] = system: cocklebur (Xanthium strumarium); test: Postemergence herbicidal activity; conditions: scored after 2 weeks, 0 no injury, 100 complete kill
Experimental: as §1

[5] = system: giant foxtail (Setaria faberi); test: Postemergence herbicidal activity; conditions: scored after 2 weeks, 0 no injury, 100 complete kill
Experimental: as §1

[6] = system: morningglory (Ipomoea hederacea); test: Postemergence herbicidal activity; conditions: scored after 2 weeks, 0 no injury, 100 complete kill
Experimental: as §1

[7] = system: pigweed (Amaranthus retroflexus); test: Postemergence herbicidal activity; conditions: scored after 2 weeks, 0 no injury, 100 complete kill
Experimental: as §1

[8] = system: velvetleaf (Abutilion theophrasti); test: Postemergence herbicidal activity; conditions: scored after 2 weeks, 0 no injury, 100 complete kill
Experimental: as §1

viola (Viola tricolor) = test: Postemergence herbicidal activity; conditions: scored after 2 weeks, 0 no injury, 100 complete kill
Experimental: as §1

[9] = system: wild buckwheat (Polygonum convolvulus); test: Postemergence herbicidal activity; conditions: scored after 2 weeks, 0 no injury, 100 complete kill
Experimental: as §1

wild oats (Avena fatua) [10] = test: Postemergence herbicidal activity; conditions: scored after 2 weeks, 0 no injury, 100 complete kill
Experimental: as §1

[11] = system: Rox orange sorghum (Sorghum bicolor); test: Preemergence herbicidal activity; conditions: scored after 3 weeks, 0 no injury, 100 complete kill or no germination
Experimental: (§2) The soil matrix was contained in plastic pots with a surface area of 161 square centimeters. When required to ensure good germination and healthy plants, a fungicide treatment and/or other chemical or physical treatment was applied. A weighed amount, determined by the highest rate to be tested, of each test compound was placed in a 20 mL glass vial and was dissolved in 8 mL of a 97:3 v/v (volume/volume) mixture of acetone and dimethyl sulfoxide to obtain concentrated stock solutions. […] The stock solutions obtained were diluted with a 99.9:0.1 mixture of water and Tween® 155 surfactant (ethoxylated sorbitan fatty acid ester) to obtain application solutions of known concentration. The solutions containing the highest concentration to be tested were prepared by diluting 4 mL aliquots of the stock solution with 8.5 mL of the mixture and lower concentrations were prepared by dilution of appropriate smaller portions of the stock solution. A 2.5 mL aliquot of each solution of known concentration was sprayed evenly onto the soil of each seeded pot using a Cornwall 5.0 mL glass syringe fitted with a TeeJet TN-3 hollow cone nozzle to obtain thorough coverage of the soil in each pot. Control pots were sprayed in the same manner with the aqueous mixture. A highest application rate of 4.48 kg/ha is achieved when 50 mg of test compound is employed. The treated pots and control pots were placed in a greenhouse with an approximately 15 hr photoperiod which was maintained at about 23-29° C. during the day and 22-28° C. during the night. Nutrients and water were added on a regular basis and supplemental lighting was provided with overhead metal halide 1000 Watt lamps as necessary. The water was added by top-irrigation. After 3 weeks the condition of the test plants that germinated and grew as compared with that of the untreated plants that germinated and grew was determined visually and scored on a scale of 0 to 100 percent where 0 corresponds to no injury and 100 corresponds to complete kill or no germination.

[12] = system: barnyardgrass (Echinochloa crus-galli); test: Preemergence herbicidal activity; conditions: scored after 3 weeks, 0 no injury, 100 complete kill or no germination
Experimental: as §2

[13] = system: blackgrass (Alopecurus myosuroides); test: Preemergence herbicidal activity; conditions: scored after 3 weeks, 0 no injury, 100 complete kill or no germination
Experimental: as §2

[14] = system: cocklebur (Xanthium strumarium); test: Preemergence herbicidal activity; conditions: 17.5 g/Ha; scored after 3 weeks; 0 no injury, 100 complete kill or no germination
Experimental: as §2

[15] = system: crabgrass (Digitaria sanguinalis); test: Preemergence herbicidal activity; conditions: scored after 3 weeks, 0 no injury, 100 complete kill or no germination
Experimental: as §2

[16] = system: giant foxtail (Setaria faberi); test: Preemergence herbicidal activity; conditions: scored after 3 weeks, 0 no injury, 100 complete kill or no germination
Experimental: as §2

[17] = system: lambsquarters (Chenopodium album); test: Preemergence herbicidal activity; conditions: scored after 3 weeks, 0 no injury, 100 complete kill or no germination
Experimental: as §2

[18] = system: morningglory (Ipomoea hederacea); test: Preemergence herbicidal activity; conditions: scored after 3 weeks, 0 no injury, 100 complete kill or no germination
Experimental: as §2

[19] = system: pigweed (Amaranthus retroflexus); test: Preemergence herbicidal activity; conditions: scored after 3 weeks, 0 no injury, 100 complete kill or no germination
Experimental: as §2

[20] = system: velvetleaf (Abutilion theophrasti); test: Preemergence herbicidal activity; conditions: scored after 3 weeks, 0 no injury, 100 complete kill or no germination
Experimental: as §2

wild oats (Avena fatua) [21] = test: Preemergence herbicidal activity; conditions: scored after 3 weeks, 0 no injury, 100 complete kill or no germination
Experimental: as §2

[22] = system: wild poinsettia (Euphorbia heterophylla); test: Preemergence herbicidal activity; conditions: scored after 3 weeks, 0 no injury, 100 complete kill or no germination
Experimental: as §2

[23] = system: lambsquarters (Chenopodium album); test: Postemergence herbicidal activity; conditions: scored after 2 weeks, 0 no injury, 100 complete kill
Experimental: as §1

`COc1cc(OC)n2nc(NS(=O)(=O)c3c(OCC(F)F)cccc3C(F)(F)F)nc2n1` [Compound 8] was tested, and the “Postemergence herbicidal activity SORBI” value ([1]; 31.3 ppm) was 80%, the “Postemergence herbicidal activity ALOMY” value ([2]; 31.3 ppm) was 80% and the “Postemergence herbicidal activity STEME” value ([3]; 31.3 ppm) was 98%. The “Postemergence herbicidal activity XANST” value ([4]; 31.3 ppm) was 100%, the “Postemergence herbicidal activity SETFA” value ([5]; 31.3 ppm) was 100% and the “Postemergence herbicidal activity IPOHE” value ([6]; 31.3 ppm) was 95%. For the same compound, the “Postemergence herbicidal activity AMARE” value ([7]; 31.3 ppm) was 100%, the “Postemergence herbicidal activity ABUTH” value ([8]; 31.3 ppm) was 100% and the “Postemergence herbicidal activity VIOTR” value (viola (Viola tricolor); 31.3 ppm) was 85%. The “Postemergence herbicidal activity POLCO” value ([9]; 31.3 ppm) was 98%, the “Postemergence herbicidal activity AVEFA” value (wild oats (Avena fatua) [10]; 31.3 ppm) was 60% and the “Preemergence herbicidal activity SORBI” value ([11]; 17.5 g/Ha) was 95%. For the same compound, the “Preemergence herbicidal activity ECHCG” value ([12]; 17.5 g/Ha) was 100%, the “Preemergence herbicidal activity ALOMY” value ([13]; 17.5 g/Ha) was 95% and the “Preemergence herbicidal activity XANST” value [14] was 80%. For the same compound, the “Preemergence herbicidal activity DIGSA” value ([15]; 17.5 g/Ha) was 85%, the “Preemergence herbicidal activity SETFA” value ([16]; 17.5 g/Ha) was 100% and the “Preemergence herbicidal activity CHEAL” value ([17]; 17.5 g/Ha) was 100%. For the same compound, the “Preemergence herbicidal activity IPOHE” value ([18]; 17.5 g/Ha) was 90%, the “Preemergence herbicidal activity AMARE” value ([19]; 17.5 g/Ha) was 100% and the “Preemergence herbicidal activity ABUTH” value ([20]; 17.5 g/Ha) was 85%. For the same compound, the “Preemergence herbicidal activity AVEFA” value (wild oats (Avena fatua) [21]; 17.5 g/Ha) was 30% and the “Preemergence herbicidal activity EPHHL” value ([22]; 17.5 g/Ha) was 90%.
In the case of `CCOc1ccc(C)cc1S(=O)(=O)Nc1nc2nc(OC)cc(OC)n2n1` [Compound 10], the “Postemergence herbicidal activity SORBI” value ([1]; 7.8 ppm) is reported as 85%, the “Postemergence herbicidal activity ALOMY” value ([2]; 7.8 ppm) is reported as 80% and the “Postemergence herbicidal activity STEME” value ([3]; 7.8 ppm) is reported as 85%. For the same compound, the “Postemergence herbicidal activity XANST” value ([4]; 7.8 ppm) was 50%, the “Postemergence herbicidal activity SETFA” value ([5]; 7.8 ppm) was 80% and the “Postemergence herbicidal activity CHEAL” value ([23]; 7.8 ppm) was 95%. For the same compound, the “Postemergence herbicidal activity IPOHE” value ([6]; 7.8 ppm) was 20%, the “Postemergence herbicidal activity AMARE” value ([7]; 7.8 ppm) was 95% and the “Postemergence herbicidal activity ABUTH” value ([8]; 7.8 ppm) was 50%. The “Postemergence herbicidal activity VIOTR” value (viola (Viola tricolor); 7.8 ppm) was 85%, the “Postemergence herbicidal activity POLCO” value ([9]; 7.8 ppm) was 85% and the “Postemergence herbicidal activity AVEFA” value (wild oats (Avena fatua) [10]; 7.8 ppm) was 90%. The “Preemergence herbicidal activity SORBI” value ([11]; 35 g/Ha) was 100%, the “Preemergence herbicidal activity ECHCG” value ([12]; 35 g/Ha) was 80% and the “Preemergence herbicidal activity ALOMY” value ([13]; 35 g/Ha) was 30%. For the same compound, the “Preemergence herbicidal activity DIGSA” value ([15]; 35 g/Ha) was 0%, the “Preemergence herbicidal activity SETFA” value ([16]; 35 g/Ha) was 40% and the “Preemergence herbicidal activity CHEAL” value ([17]; 35 g/Ha) was 90%. The “Preemergence herbicidal activity IPOHE” value ([18]; 35 g/Ha) was 0%, the “Preemergence herbicidal activity AMARE” value ([19]; 35 g/Ha) was 98% and the “Preemergence herbicidal activity ABUTH” value ([20]; 35 g/Ha) was 60%. For the same compound, the “Preemergence herbicidal activity AVEFA” value (wild oats (Avena fatua) [21]; 35 g/Ha) was 80% and the “Preemergence herbicidal activity EPHHL” value ([22]; 35 g/Ha) was 40%.
In the case of `COc1cc(OC)n2nc(NS(=O)(=O)c3c(OC)cccc3C(F)(F)F)nc2n1` [Compound 4], the “Postemergence herbicidal activity SORBI” value ([1]; 3.9 ppm) is reported as 95%, the “Postemergence herbicidal activity ALOMY” value ([2]; 3.9 ppm) is reported as 95% and the “Postemergence herbicidal activity STEME” value ([3]; 3.9 ppm) is reported as 99%. For the same compound, the “Postemergence herbicidal activity XANST” value ([4]; 3.9 ppm) was 70%, the “Postemergence herbicidal activity SETFA” value ([5]; 3.9 ppm) was 100% and the “Postemergence herbicidal activity CHEAL” value ([23]; 3.9 ppm) was 95%. For the same compound, the “Postemergence herbicidal activity IPOHE” value ([6]; 3.9 ppm) was 90%, the “Postemergence herbicidal activity AMARE” value ([7]; 3.9 ppm) was 100% and the “Postemergence herbicidal activity ABUTH” value ([8]; 3.9 ppm) was 95%. The “Postemergence herbicidal activity VIOTR” value (viola (Viola tricolor); 3.9 ppm) was 90%, the “Postemergence herbicidal activity POLCO” value ([9]; 3.9 ppm) was 95% and the “Postemergence herbicidal activity AVEFA” value (wild oats (Avena fatua) [10]; 3.9 ppm) was 98%. The “Preemergence herbicidal activity SORBI” value ([11]; 17.5 g/Ha) was 100%, the “Preemergence herbicidal activity ECHCG” value ([12]; 17.5 g/Ha) was 100% and the “Preemergence herbicidal activity ALOMY” value ([13]; 17.5 g/Ha) was 100%. The “Preemergence herbicidal activity XANST” value [14] was 85%, the “Preemergence herbicidal activity DIGSA” value ([15]; 17.5 g/Ha) was 100% and the “Preemergence herbicidal activity SETFA” value ([16]; 17.5 g/Ha) was 99%. The “Preemergence herbicidal activity IPOHE” value ([18]; 17.5 g/Ha) was 98%, the “Preemergence herbicidal activity AMARE” value ([19]; 17.5 g/Ha) was 99% and the “Preemergence herbicidal activity ABUTH” value ([20]; 17.5 g/Ha) was 98%. For the same compound, the “Preemergence herbicidal activity AVEFA” value (wild oats (Avena fatua) [21]; 17.5 g/Ha) was 100% and the “Preemergence herbicidal activity EPHHL” value ([22]; 17.5 g/Ha) was 98%.
